We go through six compounds from article PMC8262977, “A Dual-Specificity Inhibitor Targets Polyphosphate Kinase 1 and 2 Enzymes To Attenuate Virulence of Pseudomonas aeruginosa” (mBio, 2021).

Values after ≈ are worked out from the molar mass of the structure shown. Like-named read-outs stand apart in the source and are kept apart here.

The subject of one series is E. coli PPK1. Details: method as in earlier work. The following applies: ref 1 (supplement: Ahn K, Kornberg A. 1990); cited from earlier work.
In another series the target is T1, P. aeruginosa PPK2A (Pseudomonas aeruginosa, UniProt Q9I6Z1).
T1 construct: residues P9 to P289; MBP (N, cleaved yes); His tag (N, cleaved yes); made in house; host or cells: E. coli BL21(DE3)
T1 sequence (Q9I6Z1 68-348): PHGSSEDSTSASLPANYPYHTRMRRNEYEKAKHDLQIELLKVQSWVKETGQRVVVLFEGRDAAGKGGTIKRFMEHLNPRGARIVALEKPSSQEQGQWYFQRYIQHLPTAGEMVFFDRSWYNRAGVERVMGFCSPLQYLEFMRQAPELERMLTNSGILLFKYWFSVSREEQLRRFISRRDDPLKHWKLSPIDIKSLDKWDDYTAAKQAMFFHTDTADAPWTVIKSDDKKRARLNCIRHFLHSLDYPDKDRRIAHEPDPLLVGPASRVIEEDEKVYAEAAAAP
Put plainly: PPK2A ADP phosphorylation by polyP (ATP synthesis), toluidine blue detection. The series is classed as biochemical. The protocol:
(§1) All IC50 and kinetic assay mixtures contained equimolar amounts (275 nM) of PPK to ensure valid comparison between different enzymes. PolyP synthesis activity (for PPK1 and PPK2B) was assayed using the reaction buffer and conditions described above. ATP concentration was varied as indicated for kinetic experiments. Curves were fit using GraphPad Prism V9.
(§2) Nucleotide phosphorylation activity of PPK2 enzymes was assayed in buffer containing 50 mM Tris-HCl, pH 7.5, 10 mM (NH4)2SO4, 10 mM MgCl2, 5 mM polyP45 (Sigma; in terms of individual Pi monomers), and nucleotide (ADP or AMP) at 5 mM for IC50 reactions or as indicated for kinetic experiments. Enzyme was added to a final concentration of 275 nM in 100-μl reaction volumes. One-hundred-microliter reaction mixtures were incubated at 37°C for 30 min, and then 5-μl aliquots were withdrawn and added to 1,000 μl of 6-mg/liter toluidine blue dissolved in 40 mM acetic acid to quench the reaction and quantify the polyP that remained. The A630/530 nm ratio was then recorded, and the values obtained were corrected by subtracting the corresponding blanks (all ingredients except enzyme). The amount of polyP consumed was calculated by subtracting the amount present after reaction from that present in the initial reaction mix, as calculated via a standard curve. Each monomer of Pi consumed from polyP equates to one nucleoside phosphorylated. Curves were fit using GraphPad Prism V9.

In another series the target is T2, P. aeruginosa PPK2C (Pseudomonas aeruginosa, UniProt Q9HYF1).
T2 construct: MBP (N, cleaved yes); His tag (N, cleaved yes); made in house; host or cells: E. coli BL21(DE3)
T2 sequence (Q9HYF1 whole entry): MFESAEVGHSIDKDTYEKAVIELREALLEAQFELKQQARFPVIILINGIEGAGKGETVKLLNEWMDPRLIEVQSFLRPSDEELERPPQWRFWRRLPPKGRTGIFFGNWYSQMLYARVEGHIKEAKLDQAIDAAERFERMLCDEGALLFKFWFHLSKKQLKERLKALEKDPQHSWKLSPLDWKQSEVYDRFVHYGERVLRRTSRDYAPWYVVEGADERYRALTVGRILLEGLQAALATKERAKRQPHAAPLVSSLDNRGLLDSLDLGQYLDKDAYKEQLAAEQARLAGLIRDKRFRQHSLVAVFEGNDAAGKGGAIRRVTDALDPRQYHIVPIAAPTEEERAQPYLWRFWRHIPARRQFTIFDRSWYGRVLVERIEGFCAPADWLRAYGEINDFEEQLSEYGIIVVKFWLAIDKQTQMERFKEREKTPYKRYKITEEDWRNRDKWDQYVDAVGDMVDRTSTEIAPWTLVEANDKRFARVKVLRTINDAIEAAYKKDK
Put plainly: PPK2C AMP phosphorylation by polyP (ADP synthesis), toluidine blue detection. The series is classed as biochemical. The protocol:
as §1, §2

The target of the next series is T3, P. aeruginosa PPK1 (Pseudomonas aeruginosa, UniProt P0DP44).
T3 construct: His tag (cleaved yes); made in house
T3 sequence (P0DP44 whole entry): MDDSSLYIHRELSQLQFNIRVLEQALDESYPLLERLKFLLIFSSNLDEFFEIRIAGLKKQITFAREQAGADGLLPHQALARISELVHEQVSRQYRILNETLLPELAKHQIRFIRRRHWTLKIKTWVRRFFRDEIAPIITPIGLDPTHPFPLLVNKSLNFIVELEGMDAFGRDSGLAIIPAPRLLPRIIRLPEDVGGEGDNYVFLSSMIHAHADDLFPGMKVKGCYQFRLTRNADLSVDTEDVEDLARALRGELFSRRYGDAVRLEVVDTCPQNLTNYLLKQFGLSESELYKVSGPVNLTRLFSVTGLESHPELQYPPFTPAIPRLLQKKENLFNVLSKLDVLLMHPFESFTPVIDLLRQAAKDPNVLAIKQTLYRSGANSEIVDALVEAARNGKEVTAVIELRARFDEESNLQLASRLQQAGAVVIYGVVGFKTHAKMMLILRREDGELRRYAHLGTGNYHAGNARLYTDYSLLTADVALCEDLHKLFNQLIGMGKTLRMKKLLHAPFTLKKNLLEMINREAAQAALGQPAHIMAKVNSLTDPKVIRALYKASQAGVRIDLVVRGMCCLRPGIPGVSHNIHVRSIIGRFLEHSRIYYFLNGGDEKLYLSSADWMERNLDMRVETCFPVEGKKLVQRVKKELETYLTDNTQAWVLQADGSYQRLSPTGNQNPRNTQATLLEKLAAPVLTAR
Nature of the series: PPK1 polyP synthesis from ATP, toluidine blue detection. The series is classed as biochemical. The following applies: polyP synthesis from ATP; 275 nM enzyme. The protocol:
Compounds were synthesized as outlined in Text S1. Compounds were dissolved in DMSO to make 10 mM stocks and added to a 200 μM final concentration for initial screening. The screen for PPK1 inhibitors was conducted by measuring polyP synthesis activity as described previously ([12]), with the exception of the polyP detection method (see Text S1). […] One-hundred-microliter reaction mixtures were incubated at 37°C for 30 min, after which time 50-μl aliquots were withdrawn and added to 1,000 μl of 6-mg/liter toluidine blue dissolved in 40 mM acetic acid to quench the reaction and quantify polyP ([27]). The A630/530 nm ratio was then recorded, and the values obtained were corrected by subtracting the corresponding blanks (all ingredients except enzyme). The amount of polyP synthesized was calculated using a standard curve (Fig. S1A). Any compounds showing 50% or greater reduction in activity relative to the DMSO control were subjected to further IC50 analysis.
as §1

The target of the next series is T4, P. aeruginosa PPK2B (Pseudomonas aeruginosa, UniProt Q9I154).
T4 construct: MBP (N, cleaved yes); His tag (N, cleaved yes); made in house; host or cells: E. coli BL21(DE3)
T4 sequence (Q9I154 whole entry): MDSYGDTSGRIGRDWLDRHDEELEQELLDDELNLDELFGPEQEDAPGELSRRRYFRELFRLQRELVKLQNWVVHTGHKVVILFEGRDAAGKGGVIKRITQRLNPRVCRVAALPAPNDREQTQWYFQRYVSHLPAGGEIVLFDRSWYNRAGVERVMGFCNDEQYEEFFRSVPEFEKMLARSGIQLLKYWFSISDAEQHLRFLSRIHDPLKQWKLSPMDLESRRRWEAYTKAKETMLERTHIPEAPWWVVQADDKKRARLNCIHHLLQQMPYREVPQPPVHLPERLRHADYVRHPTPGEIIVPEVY
Put plainly: PPK2B polyP synthesis from ATP, toluidine blue detection. The series is classed as biochemical. The protocol:
Compounds were synthesized as outlined in Text S1. Compounds were dissolved in DMSO to make 10 mM stocks and added to a 200 μM final concentration for initial screening. The screen for PPK1 inhibitors was conducted by measuring polyP synthesis activity as described previously ([12]), with the exception of the polyP detection method (see Text S1). The reaction mix contained 50 mM HEPES-KOH, pH 7.5, 40 mM (NH4)2SO4, 4 mM MgSO4, 60 mM creatine phosphate, 0.0625 mg/ml creatine kinase (Sigma; from rabbit muscle), 5 mM ATP, and 275 nM PPK1 (added last). One-hundred-microliter reaction mixtures were incubated at 37°C for 30 min, after which time 50-μl aliquots were withdrawn and added to 1,000 μl of 6-mg/liter toluidine blue dissolved in 40 mM acetic acid to quench the reaction and quantify polyP ([27]). The A630/530 nm ratio was then recorded, and the values obtained were corrected by subtracting the corresponding blanks (all ingredients except enzyme). The amount of polyP synthesized was calculated using a standard curve (Fig. S1A). Any compounds showing 50% or greater reduction in activity relative to the DMSO control were subjected to further IC50 analysis.
as §1

The subject of another series is HEK293T cells. Put plainly: HEK293T cytotoxicity assay, trypan blue. The format is cell-based, human. The settings on record: 48 h incubation. The protocol:
HEK293 cells were grown in Dulbecco’s modified Eagle’s medium supplemented with 10% fetal bovine serum at 5% CO2 and 37°C. Cells were grown until a confluent monolayer was formed in 12-well culture plates, at which point inhibitors or DMSO was added. After 48-h incubation, cells were detached with trypsin and percent viability was scored via a hemocytometer and trypan blue staining.

The subject of series [1] is P. aeruginosa. Put plainly: Antibiotic synergy in the C. elegans LK model. The series is classed as in vivo, Caenorhabditis elegans. Further details: C. elegans antibiotic synergy, Mean Diff.: unit not given here. The protocol: Assessment of antibiotic synergy in the C. elegans model was adapted from previously described protocols ([25]). Briefly, glp-4 C. elegans worms were incubated at 25°C with P. aeruginosa and the indicated amount of gallein or DMSO in LK medium as described above. After 24 h, antibiotics were added. After another 24 h, C. elegans survival was scored as described above.

Series [2] relates to P. aeruginosa. Put plainly: microbe, parasite or virus in culture. The series is classed as cell-based, Pseudomonas aeruginosa. The settings on record: Pseudomonas aeruginosa.
The mark [3] stands for this setting: ATP synthesis from ADP and polyP, 275 nM enzyme, read-out: IC50 PPK2A.
Setting [4] is: Data Set S1, sheet Risen compounds, read-out: PA PPK2A IC50.
Setting [5] is: ADP synthesis from AMP and polyP, 275 nM enzyme, read-out: IC50 PPK2C.
The mark [6] stands for this setting: Data Set S1, sheet Risen compounds, read-out: PA PPK2C IC50.
Where [7] appears, read: polyP synthesis from ATP, 275 nM enzyme, read-out: IC50 PPK2B.

Regarding `Nc1ncnc2c1ncn2[C@@H]1O[C@H](COP(=O)(O)OP(=O)(O)O)[C@@H](O)[C@H]1O` [ADP], in the series on E. coli PPK1, the inhibition constant Ki is 90 µM.

Turning to `COc1ccc2c(c1OC)c(=O)oc1c(OC)c(O)ccc12` [RT1, 3-hydroxy-4,7,8-trimethoxy-6H-benzo[c]chromen-6-one], the IC50 is above 500 µM on P. aeruginosa PPK2A (setting [3]); above 500 µM at P. aeruginosa PPK2A (setting [4]); above 500 µM on P. aeruginosa PPK2C (setting [5]); above 500 µM on P. aeruginosa PPK2C (setting [6]); 120 ± 10 µM on P. aeruginosa PPK1; above 500 µM at P. aeruginosa PPK2B (Data Set S1, sheet Risen compounds, read-out: PA PPK2B IC50). In addition, the concentration for half-maximal inhibition (IC50) at P. aeruginosa PPK2B (setting [7]) is above 500 µM. Moreover, the “reduction of cell viability” value in the series on HEK293T cells is reported as around 60%.

As to `O=c1oc2c(O)c(O)c(O)c3c(=O)oc4c(O)c(O)cc1c4c23` [RT2, 1,2,3,7,8-pentahydroxychromeno[5,4,3-cde]chromene-5,10-dione], the IC50 at P. aeruginosa PPK2A (setting [3]) is above 500 µM; at P. aeruginosa PPK2A (setting [4]), above 500 µM; on P. aeruginosa PPK2C (setting [5]), above 500 µM; at P. aeruginosa PPK2C (setting [6]), above 500 µM; against P. aeruginosa PPK1, 20 ± 4 µM; on P. aeruginosa PPK2B (setting [7]), 59 ± 5 µM.

With `O=c1oc2c(O)c(O)cc3c(=O)oc4c(O)c(O)cc1c4c23` [RT3 (ellagic acid), 2,3,7,8-tetrahydroxychromeno[5,4,3-cde]chromene-5,10-dione], the IC50 at P. aeruginosa PPK2A (setting [3]) is 50 ± 6 µM; on P. aeruginosa PPK2C (setting [5]), above 500 µM; at P. aeruginosa PPK2C (setting [6]), above 500 µM; against P. aeruginosa PPK1 it was 20 ± 2 µM; at P. aeruginosa PPK2B (setting [7]) it was 48 ± 2 µM.

As for `O=C(O)c1cn(C2CC2)c2cc(N3CCNCC3)c(F)cc2c1=O` [ciprofloxacin, reference compound], the figures for the “C. elegans antibiotic synergy, Mean Diff.” value with P. aeruginosa [1] (No antibiotic + 100 µM gallein vs Cipro (0.75 µg/mL) + 100 µM gallein) and in the series on P. aeruginosa [1] (No antibiotic DMSO vs Cipro (0.75 µg/mL) DMSO) were -18.9 and 12.02, respectively.

Take `CN(C)[C@@H]1C(O)=C(C(N)=O)C(=O)[C@@]2(O)C(O)=C3C(=O)c4c(O)cccc4[C@@](C)(O)[C@H]3C[C@@H]12` [tetracycline, reference compound]: the “C. elegans antibiotic synergy, Mean Diff.” value in the series with P. aeruginosa [1] (No antibiotic + 100 µM gallein vs Tet (10 µg/mL) + 100 µM gallein) is -22.79; in the series on P. aeruginosa [1] (No antibiotic DMSO vs Tet (10 µg/mL) DMSO) it was 10.54. Moreover, in the series with P. aeruginosa [2], the MIC was 16 µg/mL (≈ 36 µM).
